Laboratory results from patent US7465544B2, “Synthetic cofactor analogs of S-adenosylmethionine as ligatable probes of biological methylation and methods for their use” (Wisconsin Alumni Research Foundation, priority 2006, dated 2008).
Structures can show the parent of a compound that is named as a salt.

What was measured:
Format in all cases: biochemical
[1] = target: T1, M.TaqI (Thermus aquaticus, UniProt P14385); experiment: Restriction/protection assay: M.TaqI-mediated alkylation of R.EcoRI-linearized pUC19; settings: for extent of DNA alkylation (protection from R.TaqI digestion) with increasing M.TaqI: 14.3 nM linearized pUC19, 20 to 200 nM M.TaqI, 65° C. 4 h; for extent of DNA alkylation (protection from R.TaqI digestion) with increasing M.TaqI / protection of DNA from R.TaqI in the absence of M.TaqI: 100 μM cofactor analog; for protection of DNA from R.TaqI in the absence of M.TaqI: no M.TaqI; for protection from R.TaqI with increasing cofactor analog concentration: 10 to 100 μM cofactor analog, 200 nM M.TaqI; for efficiency of M.TaqI dependent DNA alkylation relative to 3: linearized pUC19, disappearance of smaller restriction fragments
[2] = target: M.EcoRI (Escherichia coli, UniProt P00472)
[3] = target: T2, M.HpaII (Haemophilus parainfluenzae, UniProt P15446); experiment: M.HpaII-catalyzed transfer of cofactor analogs to DNA
T2 construct: purchased New England Biolabs
T2 sequence (P15446 1-358): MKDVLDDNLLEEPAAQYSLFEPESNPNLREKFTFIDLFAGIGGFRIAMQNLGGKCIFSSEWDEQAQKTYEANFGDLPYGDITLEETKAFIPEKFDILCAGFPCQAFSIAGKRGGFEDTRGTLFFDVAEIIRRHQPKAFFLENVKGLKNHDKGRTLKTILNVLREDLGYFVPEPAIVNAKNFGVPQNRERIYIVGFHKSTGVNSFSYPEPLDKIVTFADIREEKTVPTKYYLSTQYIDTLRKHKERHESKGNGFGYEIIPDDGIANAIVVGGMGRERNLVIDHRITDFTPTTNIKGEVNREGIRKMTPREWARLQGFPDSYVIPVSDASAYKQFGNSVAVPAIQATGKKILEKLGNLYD

[4] = target: T1, M.TaqI
[5] = target: M.SssI (Spiroplasma monobiae, UniProt P15840)
[6] = target: M.HhaI (Haemophilus parahaemolyticus, UniProt P05102)
Sequence of M.HhaI (P05102 whole entry): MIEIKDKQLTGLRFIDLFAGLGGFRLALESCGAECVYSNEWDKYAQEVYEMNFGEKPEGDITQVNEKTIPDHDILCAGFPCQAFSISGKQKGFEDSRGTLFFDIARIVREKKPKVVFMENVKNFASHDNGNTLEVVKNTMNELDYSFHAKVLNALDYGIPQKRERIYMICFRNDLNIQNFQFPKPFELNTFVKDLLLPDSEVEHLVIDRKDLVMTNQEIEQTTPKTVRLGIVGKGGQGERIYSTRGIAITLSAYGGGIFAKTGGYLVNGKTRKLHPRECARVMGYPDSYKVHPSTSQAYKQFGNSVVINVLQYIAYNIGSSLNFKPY

T1 sequence (P14385 whole entry, the tested form may be a part): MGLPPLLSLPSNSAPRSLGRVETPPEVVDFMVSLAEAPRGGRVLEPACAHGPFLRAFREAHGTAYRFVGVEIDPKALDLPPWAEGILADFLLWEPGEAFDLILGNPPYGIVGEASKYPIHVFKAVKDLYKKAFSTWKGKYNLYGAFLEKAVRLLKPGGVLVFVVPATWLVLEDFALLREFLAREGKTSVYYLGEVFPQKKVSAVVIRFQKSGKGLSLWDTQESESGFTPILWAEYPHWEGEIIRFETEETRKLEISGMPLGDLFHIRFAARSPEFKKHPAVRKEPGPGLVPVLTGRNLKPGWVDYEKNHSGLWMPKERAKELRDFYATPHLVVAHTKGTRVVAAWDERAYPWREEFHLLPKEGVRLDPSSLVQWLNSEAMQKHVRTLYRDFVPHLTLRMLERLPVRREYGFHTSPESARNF
Sequence of M.EcoRI (P00472 whole entry): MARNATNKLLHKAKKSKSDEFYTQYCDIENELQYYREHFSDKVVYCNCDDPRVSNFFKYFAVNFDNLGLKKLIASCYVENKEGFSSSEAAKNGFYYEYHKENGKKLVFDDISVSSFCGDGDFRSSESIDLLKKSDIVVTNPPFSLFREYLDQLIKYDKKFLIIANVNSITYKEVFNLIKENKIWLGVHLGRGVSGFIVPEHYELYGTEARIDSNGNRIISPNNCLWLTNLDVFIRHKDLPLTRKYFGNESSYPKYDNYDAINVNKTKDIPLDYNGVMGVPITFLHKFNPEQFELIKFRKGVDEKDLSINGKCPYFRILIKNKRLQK
Sequence of M.SssI (P15840 whole entry): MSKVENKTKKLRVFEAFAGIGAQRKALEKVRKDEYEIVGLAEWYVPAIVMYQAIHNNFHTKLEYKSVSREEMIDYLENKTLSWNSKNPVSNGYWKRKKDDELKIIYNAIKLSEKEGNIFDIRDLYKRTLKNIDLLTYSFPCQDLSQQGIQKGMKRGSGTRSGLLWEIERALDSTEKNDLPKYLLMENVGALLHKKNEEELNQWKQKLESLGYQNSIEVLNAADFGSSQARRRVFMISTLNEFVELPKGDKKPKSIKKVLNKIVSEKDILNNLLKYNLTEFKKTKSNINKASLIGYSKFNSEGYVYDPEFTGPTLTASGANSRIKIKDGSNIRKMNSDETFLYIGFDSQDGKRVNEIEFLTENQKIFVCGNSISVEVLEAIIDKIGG

Row | Compound | extent of DNA alkylation (protection from R.TaqI digestion) with increasing M.TaqI [1] | protection of DNA from R.TaqI in the absence of M.TaqI [1] | protection from R.TaqI with increasing cofactor analog concentration [1] | transfer of cofactor analog to radiolabeled synthetic oligo duplex [2] | M.HpaII-catalyzed transfer of cofactor analog [3] | covalent attachment to synthetic oligonucleotide (DNA mobility shift) [4] | efficiency of M.TaqI dependent DNA alkylation relative to 3 [1] | M.HhaI-catalyzed transfer of cofactor analog [6] | DNA alkylation at 200 nM cofactor analog [2] | other results
1 | 5′-aziridine adenylate [compound 3, reference compound] | increase in the amount of DNA alkylation | no protection of the DNA | increased protection from R.TaqI | clearly capable of transferring | compatible | pronounced shift of the DNA mobility | – | – | – | –
2 | [N-]=[N+]=Nc1nc2c(N)ncnc2n1[C@@H]1O[C@H](CN2CC2)C(O)[C@@H]1O (stereo partly shown) [24a, 8-azido-5′-aziridino-5′-deoxyadenosine] | increase in the amount of DNA alkylation | no protection of the DNA | increased protection from R.TaqI | closely parallels that observed with M.TaqI | not able to catalyze the transfer | pronounced shift of the DNA mobility | better cofactor analogs for M.TaqI than is the unsubstituted cofactor analog 3 | catalyzed the transfer | – | M.SssI transfer of cofactor analog to its recognition sequence [5]: readily transfers; efficiency of M.SssI mediated DNA alkylation, hemimethylated duplex 9 versus unmethylated duplex 8 [5]: significantly more efficient for hemimethylated duplex 9; transfer to the 55-mer duplex 5 [6]: effectively catalyze the transfer; transfer to the 55-mer duplex 5 [4]: effectively catalyze the transfer
3 | Nc1ncnc2c1ncn2[C@@H]1O[C@H](CN(CCI)CC[C@H](N)C(=O)O)C(O)[C@@H]1O (stereo partly shown) [compound 67, 5′-(diaminobutyric acid)-N-iodoethyl-5′-deoxyadenosine ammonium hydrochloride] | – | – | – | – | – | – | – | – | significant amount of slow mobility DNA | alkylation of duplex bearing 5-MeC for C substitution at the target base [5]: failed to undergo alkylation; lowest concentration at which cofactor analog is active [2]: ≤ 40 nM; alkylation of duplex bearing 5-MeC for C substitution at the target base [6]: failed to undergo alkylation
4 | C#CCN(CCI)C[C@H]1O[C@@H](n2cnc3c(N)ncnc32)[C@@H](O)C1O (stereo partly shown) [compound 56, 5′-[(iodoethyl)propargyl)amino]-2′,3′-5′-deoxyadenosine hydrochloride] | – | – | – | – | – | – | – | – | not active at all | protection of linearized pUC19 DNA from R.TaqI digestion ([1]; brief treatments with M.TaqI, unpublished data): used very effectively to protect linearized pUC19 DNA from R.TaqI digestion; DNA alkylation activity relative to 3 [2]: closely parallels that of 3; alkylation of duplex pre-methylated with SAM [2]: failed to undergo reaction; DNA-damaging activity in the presence of M.HhaI [6]: completely devoid of DNA-damaging activity; DNA alkylation activity relative to 3 [4]: closely parallels that of 3; alkylation of duplex pre-methylated with SAM [4]: failed to undergo reaction
5 | [N-]=[N+]=NCCCCNc1nc2c(N)ncnc2n1[C@@H]1O[C@H](CN2CC2)[C@H](O)C1O (stereo partly shown) [24b, 8-(4″-Azido-butylamino)-5′-aziridino-5′-deoxy adenosine] | increase in the amount of DNA alkylation | no protection of the DNA | increased protection from R.TaqI | closely parallels that observed with M.TaqI | not able to catalyze the transfer | pronounced shift of the DNA mobility | better cofactor analogs for M.TaqI than is the unsubstituted cofactor analog 3 | catalyzed the transfer | – | –
